The supplement of paper PMC6045584
± gives the standard deviation of the averaged measurements.

Compound: CC(=O)c1c(C)c2cnc(Nc3ccc(N4CCNCC4)cn3)nc2n(C2CCCC2)c1=O
Assay: surviving fraction relative to DMSO-only wells; higher = less growth inhibition
Details: 0.5 nM; exposure time: 5 days
Procedure, shortened: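 At 250–500 cells per well in 384-well plates, log-phase tumour cell lines were seeded and, 24 hours on, exposed continuously for five days to inhibitors at 0.5, 1, 5, 10, 50, 100, 500 and 1000 nM. Viability readout was CellTiter-Glo luminescence, reported as surviving fraction normalised to the median of DMSO-only wells.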

Test System	surviving fraction
CAL51 BREAST	0.964 ± 0.089
OSHN BONE	1.091 ± 0.005
MCF7 BREAST	0.965 ± 0.043
HT1080 SOFT TISSUE	0.997 ± 0.026
MDAMB157 BREAST	0.929 ± 0.05
143B BONE	1.042 ± 0.0092
SIHA CERVIX	1.09 ± 0.085
MDAMB134 BREAST	1.031 ± 0.0085
SG32 HEADNECK	1.05 ± 0.16
NCIH441 LUNG	1.16 ± 0.055
SG31 HEADNECK	1.22 ± 0.17
OS25HAL BONE	1.03 ± 0.032
HCC1954 BREAST	0.996 ± 0.22
VP229 BREAST	1.1 ± 0.1
22RV1 PROSTATE	1.05 ± 0.089
MDAMB231 BREAST	0.994 ± 0.01
RDES SOFT TISSUE	1.27 ± 0.17
LM7 BONE	0.997 ± 0.1
HMT3552 BREAST	1.05
SNU475 LIVER	1.02 ± 0.037
HCC38 BREAST	1.11 ± 0.12

Test System	surviving fraction
HU09 BONE	0.993 ± 0.16
ASKA SYNOVIAL	1.04 ± 0.06
CADOES1 SOFT TISSUE	0.962 ± 0.048
SAOS2 BONE	1.07 ± 0.062
MDAMB436 BREAST	0.912 ± 0.09
93VU HEADNECK	1.09 ± 0.1
KPD BONE	0.924 ± 0.081
SYO1 SYNOVIAL	0.989 ± 0.024
BT20 BREAST	1.12 ± 0.19
SUM44 BREAST	0.984 ± 0.044
CAL120 BREAST	0.953 ± 0.017
CHLA90 AUTONOMIC GANGLIA	1.04 ± 0.067
HCC1806 BREAST	0.984 ± 0.095
HCC78 LUNG	1.03 ± 0.14
MFM223 BREAST	1.17 ± 0.042
SG43 HEADNECK	0.92 ± 0.039
HOS BONE	1.02 ± 0.068
MDAMB468 BREAST	1.07 ± 0.03
SG27 HEADNECK	1.18 ± 0.081
ZR751 BREAST	1.07 ± 0.19

Same assay, conditions: 1 nM; exposure time: 5 days

Test System	surviving fraction
CAL51 BREAST	0.962 ± 0.055
OSHN BONE	1.073 ± 0.0079
MCF7 BREAST	0.8934 ± 0.0072
HT1080 SOFT TISSUE	1.04 ± 0.017
MDAMB157 BREAST	0.884 ± 0.027
143B BONE	1.048 ± 0.0064
SIHA CERVIX	1.12 ± 0.087
MDAMB134 BREAST	1.07 ± 0.023
SG32 HEADNECK	1.31 ± 0.3
NCIH441 LUNG	1.1 ± 0.056
SG31 HEADNECK	1.08 ± 0.19
OS25HAL BONE	1.01 ± 0.0072
HCC1954 BREAST	0.907 ± 0.29
VP229 BREAST	1.05 ± 0.04
22RV1 PROSTATE	1.06 ± 0.032
MDAMB231 BREAST	1.03 ± 0.032
RDES SOFT TISSUE	1.18 ± 0.037
LM7 BONE	0.98 ± 0.14
HMT3552 BREAST	1.05
SNU475 LIVER	1.01 ± 0.041
HCC38 BREAST	1.22 ± 0.16

Test System	surviving fraction
HU09 BONE	0.91 ± 0.051
ASKA SYNOVIAL	0.971 ± 0.057
CADOES1 SOFT TISSUE	0.897 ± 0.11
SAOS2 BONE	1.06 ± 0.034
MDAMB436 BREAST	0.888 ± 0.047
93VU HEADNECK	1.04 ± 0.09
KPD BONE	0.939 ± 0.029
SYO1 SYNOVIAL	0.966 ± 0.021
BT20 BREAST	1.06 ± 0.3
SUM44 BREAST	1.01 ± 0.028
CAL120 BREAST	0.965 ± 0.026
CHLA90 AUTONOMIC GANGLIA	1.06 ± 0.02
HCC1806 BREAST	0.999 ± 0.085
HCC78 LUNG	0.975 ± 0.063
MFM223 BREAST	1.13 ± 0.078
SG43 HEADNECK	1 ± 0.12
HOS BONE	1.03 ± 0.021
MDAMB468 BREAST	0.991 ± 0.044
SG27 HEADNECK	1.07 ± 0.1
ZR751 BREAST	1.07 ± 0.057

Same assay, conditions: 5 nM; exposure time: 5 days

Test System	surviving fraction
CAL51 BREAST	0.982 ± 0.037
OSHN BONE	1.09 ± 0.022
MCF7 BREAST	0.891 ± 0.03
HT1080 SOFT TISSUE	1.05 ± 0.017
MDAMB157 BREAST	0.974 ± 0.042
143B BONE	1.03 ± 0.021
SIHA CERVIX	1.17 ± 0.11
MDAMB134 BREAST	1.1 ± 0.013
SG32 HEADNECK	1.2 ± 0.11
NCIH441 LUNG	1.064 ± 0.0076
SG31 HEADNECK	0.988 ± 0.21
OS25HAL BONE	1.02 ± 0.011
HCC1954 BREAST	1.07 ± 0.21
VP229 BREAST	1.06 ± 0.034
22RV1 PROSTATE	1.04 ± 0.067
MDAMB231 BREAST	1.03 ± 0.014
RDES SOFT TISSUE	1.23 ± 0.067
LM7 BONE	1.108 ± 0.011
HMT3552 BREAST	0.895
SNU475 LIVER	1.06 ± 0.026
HCC38 BREAST	1.23 ± 0.036

Test System	surviving fraction
HU09 BONE	1.08 ± 0.022
ASKA SYNOVIAL	1.06 ± 0.094
CADOES1 SOFT TISSUE	0.821 ± 0.078
SAOS2 BONE	1.13 ± 0.051
MDAMB436 BREAST	1.01 ± 0.054
93VU HEADNECK	1.12 ± 0.049
KPD BONE	1.04 ± 0.05
SYO1 SYNOVIAL	0.984 ± 0.024
BT20 BREAST	0.955 ± 0.23
SUM44 BREAST	1.03 ± 0.062
CAL120 BREAST	0.9478 ± 0.0082
CHLA90 AUTONOMIC GANGLIA	1.04 ± 0.075
HCC1806 BREAST	1.05 ± 0.046
HCC78 LUNG	1.29 ± 0.046
MFM223 BREAST	1.16 ± 0.11
SG43 HEADNECK	0.862 ± 0.16
HOS BONE	1.01 ± 0.022
MDAMB468 BREAST	1.07 ± 0.03
SG27 HEADNECK	1.02 ± 0.025
ZR751 BREAST	0.923 ± 0.2

Same assay, conditions: 10 nM; exposure time: 5 days

Test System	surviving fraction
CAL51 BREAST	0.94 ± 0.06
OSHN BONE	1.07 ± 0.018
MCF7 BREAST	0.902 ± 0.026
HT1080 SOFT TISSUE	1.03 ± 0.019
MDAMB157 BREAST	0.973 ± 0.053
143B BONE	1.051 ± 0.0099
SIHA CERVIX	1.11 ± 0.041
MDAMB134 BREAST	1.07 ± 0.04
SG32 HEADNECK	1.09 ± 0.082
NCIH441 LUNG	1.07 ± 0.02
SG31 HEADNECK	0.911 ± 0.13
OS25HAL BONE	1.04 ± 0.013
HCC1954 BREAST	0.901 ± 0.4
VP229 BREAST	0.852 ± 0.093
22RV1 PROSTATE	1.048 ± 0.0085
MDAMB231 BREAST	1.01 ± 0.031
RDES SOFT TISSUE	1.02 ± 0.19
LM7 BONE	1.05 ± 0.032
HMT3552 BREAST	0.991
SNU475 LIVER	1.01 ± 0.073
HCC38 BREAST	1.19 ± 0.14

Test System	surviving fraction
HU09 BONE	1.05 ± 0.11
ASKA SYNOVIAL	1.02 ± 0.071
CADOES1 SOFT TISSUE	0.883 ± 0.13
SAOS2 BONE	1.09 ± 0.037
MDAMB436 BREAST	0.833 ± 0.032
93VU HEADNECK	1.07 ± 0.025
KPD BONE	0.961 ± 0.027
SYO1 SYNOVIAL	1.02 ± 0.054
BT20 BREAST	0.982 ± 0.1
SUM44 BREAST	0.956 ± 0.044
CAL120 BREAST	0.9508 ± 0.0056
CHLA90 AUTONOMIC GANGLIA	1.01 ± 0.055
HCC1806 BREAST	1.08 ± 0.17
HCC78 LUNG	0.899 ± 0.2
MFM223 BREAST	1.19 ± 0.062
SG43 HEADNECK	0.855 ± 0.059
HOS BONE	1.04 ± 0.034
MDAMB468 BREAST	1 ± 0.041
SG27 HEADNECK	0.956 ± 0.086
ZR751 BREAST	0.953 ± 0.15
